Experimental data: patent publication US6670307B2, “1,3-oxazoline and 1,3-thiazoline derivatives, their preparation, and their use as pesticides” (Hoechst Schering AgrEvo GmbH, priority 1998, dated 2003)

Assays:
[1] = test system: Diabrotica undecimpunctata; assay: Effect on the corn budworm Diabrotica undecimpunctata (L2 larvae, soil application); format: in vivo; conditions: for mortality at 300 ppm: Diabrotica undecimpunctata, soil, 120 h, read-out: mortality of the test animals; for mortality of the test animals: 300 ppm (based on active substance content), 1 ml pipetted onto soil, L2 larvae, after 5 days at 21° C.
Method: Effect on the Corn Budworm Diabrotica undecimpunctata
Maize seed was pregerminated for 6 hours while submerged in water, then placed into 10-ml glass tubes and covered with 2 ml of soil in each case. After 1 ml of water had been added, the plants remained in the glass tubes at 21° C. until plant length was approx. 3 cm. 10 L2 larvae of the corn budworm (Diabrotica undecimpunctata) were then introduced into each tube on the soil. Two hours later, 1 ml of an aqueous solution of the formulated preparation to be tested were pipetted onto the soil surface in the tubes. After storage for 5 days under laboratory conditions at 21° C., the soil and root sections were examined for live Diabrotica larvae and the mortality was determined. At a concentration of 300 ppm (based on the active substance content), a 100% mortality of the test animals employed was shown by the preparations of Example 2, 3, 5, 9, 19, 39.

Heliothis virescens = assay: Effect on the egg-larval stage of Heliothis virescens; format: in vivo; conditions: 144 h, read-out: mortality of eggs and any larvae hatched from them
Method: Effect on the Egg-Larval Stage of Heliothis virescens
A Petri dish whose bottom was covered with filter paper and which contained approx. 5 ml of nutrient medium was prepared. Filter paper sections containing approx. 30 24-hour-old eggs of the tobacco budworm (Heliothis virescens) were immersed for 5 seconds into an aqueous solution of the formulated preparation to be tested and subsequently placed in the Petri dish. A further 200 μl of the aqueous solution were distributed over the nutrient medium. After the Petri dish had been sealed, it was stored in a controlled-environment cabinet at approx. 25° C. After 6 days' storage, the mortality of the preparation on the eggs and any larvae hatched from them was determined. At a concentration of 300 ppm (based on the active substance content), a 90-100% mortality was caused by the preparations of Examples 1, 2, 3, 4, 5, 6, 7, 8, 14, 17, 21, 22, 23, 34, 35, 39, 40, 43, 44, 106.

Tetranychus urticae = assay: Effect on the spider mites Tetranychus urticae (spray on infested bean plants); format: in vivo; conditions: 168 h, read-out: mortality of all mite stages
Method: Effect on the Spider Mites Tetranychus urticae
Bean plants (Phaseolus vulgaris) which were severely infested with a complete population of spider mites (Tetranychus urticae) were sprayed to runoff point with an aqueous solution of the formulated preparation to be tested. The mortality of all mite stages was determined after 7 days. At a concentration of 300 ppm (based on active substance content), a 90-100% mortality was shown by the preparations of Examples 1, 2, 3, 4, 7, 8, 9, 14, 18, 21, 31, 40, 41, 43, 44, 47, 51, 106, 152 and 153.

Aphis fabae = assay: Effect on the aphid Aphis fabae (spray on infested field beans); format: in vivo; conditions: 72 h, read-out: mortality of the aphids
Method: Effect on the Aphid Aphis fabae
Field beans (Vicia faba) which were densly populated with the black bean aphid (Aphis fabae) were sprayed to runoff point with an aqueous solution of the formulated preparation to be tested. The mortality of the aphids was determined after 3 days. At a concentration of 300 ppm (based on the active substance content), a 90-100% mortality was shown by the preparations of Examples 1, 2, 3, 4, 7, 8, 152.

Spodoptera litoralis = assay: Effect on the butterfly larva Spodoptera litoralis (L4 larvae, Petri dish spray); format: in vivo; conditions: 96 h, read-out: larval mortality
Method: Effect on the Butterfly Larva Spodoptera litoralis
Ten L4 larvae of the Egyptian cotton leafworm (Spodoptera litoralis) were introduced into a Petri dish whose bottom was covered with filter paper and contained approx. 5 ml of nutrient medium. Filter paper, nutrient paper and the larvae which had been introduced were then sprayed with an aqueous solution of the formulated preparation to be tested. The Petri dish was subsequently sealed with a lid. After 4 days' storage at approx. 23° C., the effect of the preparation on the larvae was determined. At a concentration of 300 ppm (based on the active substance content), a 90-100% larval mortality was caused by the preparations of Examples 3, 4, 22, 105, 106.

Lucilia cuprina = assay: Effect on the larvae of the copperbottle Lucilia cuprina (treated nutrient medium); format: in vivo; conditions: for mortality at 100 ppm: Lucilia cuprina, 72 h, read-out: mortality in the fly larvae; for mortality in the fly larvae: 100 ppm in larval nutrient medium of ground mutton, monitored over 72 hours
Method: Effect on the Larvae of the Copperbottle Lucilia cuprina
In a sample container, 20 recently hatched larvae of the copperbottle Lucilia cuprina were placed on a larval nutrient medium of ground mutton which contained the test substance in a concentration of 100 ppm. Larval growth on the nutrient medium is monitored over 72 hours up to larva 3. At a concentration of 100 ppm (based on the active substance content), a 100% mortality in the fly larvae employed was shown by the preparations of Examples 2, 3, 4, 5, 105, 106.

Ctenocephalides felis = assay: Effect on developmental stages of the cat flea Ctenocephalides felis (treated larval medium); format: in vivo; conditions: 1000 ppm in larval nutrient medium, approx. 30 flea eggs, read-out: mortality (hatching of flea larvae and development into pupae and adult fleas)
Excerpt: Effect on Developmental Stages of the Cat Flea Ctenocephalides felis
The larval nutrient medium of the cat flea, composed of equal parts of blood meal and quartz sand, was admixed with the test substance at a concentration of 1000 ppm. Approx. 30 flea eggs freshly obtained from a breeding colony were transferred onto the medium. To assess the affect of the preparation, hatching of the flea larvae and their development into pupae and adult fleas was observed. A mortality of 100% was caused by the test substances of Examples 2, 3 and 4.

Structure (SMILES)	mortality at 300 ppm [1] [%]	mortality at 300 ppm (Heliothis virescens) [%]	mortality at 300 ppm (Tetranychus urticae) [%]	mortality at 300 ppm (Aphis fabae) [%]	mortality at 100 ppm (Lucilia cuprina) [%]	also measured
Fc1cccc(F)c1C1=NC(c2ccc(-c3ccc(OCC(F)(F)F)nc3)cc2)CS1 (stereo not shown) [Example 19, 2-(2,6-Difluorophenyl)-4-[4-(2-trifluoroethoxypyridin-5-yl)phenyl]thiazoline]	100					
CCCc1ccc(-c2ccc(C3COC(c4c(F)cccc4F)=N3)cc2)cn1 (stereo not shown) [Example 34, 2-(2,6-Difluorophenyl)-4-[4-(2-n-propylpyridin-5-yl)phenyl]oxazoline]		90 to 100				
CCCOc1ccc(-c2ccc(C3COC(c4c(F)cccc4F)=N3)cc2)cn1 (stereo not shown) [Example 4, 2-(2,6-Difluorophenyl)-4-[4-(2-n-propyloxypyridin-5-yl)phenyl]oxazoline]		90 to 100	90 to 100	90 to 100	100	mortality at 300 ppm (Spodoptera litoralis): 90 to 100%; mortality at 1000 ppm (Ctenocephalides felis): 100%
CCOc1cc(-c2ccc(OCC(F)(F)F)nc2)ccc1C1COC(c2c(F)cccc2F)=N1 (stereo not shown) [Example 106, 2-(2,6-Difluorophenyl)-4-[2-ethoxy-4-(2-trifluoroethoxypyridin-5-yl)phenyl]-oxazoline]		90 to 100	90 to 100		100	mortality at 300 ppm (Spodoptera litoralis): 90 to 100%
CC[S+]([O-])c1ccc(-c2ccc(C3COC(c4c(F)cccc4F)=N3)cc2)cn1 (stereo not shown) [Example 40, 2-(2,6-Difluorophenyl)-4-[4-(2-ethylsulfinylpyridin-5-yl)phenyl]oxazoline]		90 to 100	90 to 100			
CCC(C)Oc1ccc(-c2ccc(C3COC(c4c(F)cccc4F)=N3)cc2)cn1 (stereo not shown) [Example 9]						mortality of the test animals [1]: 100%
Fc1ccccc1C1=NC(c2ccc(-c3ccc(OCC(F)(F)F)nc3)cc2)CO1 (stereo not shown) [Example 402, 2-(2-Fluorophenyl)-4-[4-(2-trifluoroethoxypyridin-5-yl)phenyl]oxazoline]						melting point: 101 °C
CC(C)COc1ccc(-c2ccc(C3COC(c4c(F)cccc4F)=N3)cc2)cn1 (stereo not shown) [Example 8, 2-(2,6-Difluorophenyl)-4-[4-(2-isobutyloxypyridin-5-yl)phenyl]oxazoline]		90 to 100	90 to 100	90 to 100		
Fc1cccc(F)c1C1=NC(c2ccc(-c3ccc(OCC(F)(F)F)nc3)cc2)CO1 (stereo not shown) [Example 3, 2-(2,6-Difluorophenyl)-4-[4-(2-trifluoroethoxypyridin-5-yl)phenyl]oxazoline]	100	90 to 100	90 to 100	90 to 100	100	mortality at 300 ppm (Spodoptera litoralis): 90 to 100%; mortality at 1000 ppm (Ctenocephalides felis): 100%
CCOc1ccc(-c2ccc(C3COC(c4c(F)cccc4F)=N3)cc2)cn1 (stereo not shown) [Example 2, 2-(2,6-Difluorophenyl)-4-[4-(2-ethoxypyridin-5-yl)phenyl]oxazoline]	100	90 to 100	90 to 100	90 to 100	100	mortality at 1000 ppm (Ctenocephalides felis): 100%
CC(C)Oc1ccc(-c2ccc(C3COC(c4c(F)cccc4F)=N3)cc2)cn1 (stereo not shown) [Example 5]						mortality of the test animals [1]: 100%; mortality in the fly larvae (Lucilia cuprina): 100%
CCSc1ccc(-c2ccc(C3COC(c4c(F)cccc4F)=N3)cc2)cn1 (stereo not shown) [Example 39, 2-(2,6-Difluorophenyl)-4-[4-(2-ethylthiopyridin-5-yl)phenyl]oxazoline]	100	90 to 100				
CCOc1ccc(-c2ccc(C3COC(c4c(F)cccc4F)=N3)c(OC)c2)cn1 (stereo not shown) [Example 105]						mortality in the fly larvae (Lucilia cuprina): 100%
